Test results reported in publication PMC4571851, “Arginine-Ornithine Antiporter ArcD Controls Arginine Metabolism and Interspecies Biofilm Development of Streptococcus gordonii” (The Journal of Biological Chemistry, 2015).

Biological target: T1, ArcD (arginine-ornithine antiporter) (Streptococcus gordonii, UniProt A8AYK8)
T1 construct: native full-length membrane transporter in intact wild-type S. gordonii cells; deletion mutant and complemented strain as controls
Experiment: inhibition of [3H]arginine uptake into intact wild-type cells
Format: cell-based
Details: whole cells in PBS, 20 s, 50 μM labelled arginine, unlabelled ornithine at 100-fold excess

T1 sequence (A8AYK8 entry or part of it): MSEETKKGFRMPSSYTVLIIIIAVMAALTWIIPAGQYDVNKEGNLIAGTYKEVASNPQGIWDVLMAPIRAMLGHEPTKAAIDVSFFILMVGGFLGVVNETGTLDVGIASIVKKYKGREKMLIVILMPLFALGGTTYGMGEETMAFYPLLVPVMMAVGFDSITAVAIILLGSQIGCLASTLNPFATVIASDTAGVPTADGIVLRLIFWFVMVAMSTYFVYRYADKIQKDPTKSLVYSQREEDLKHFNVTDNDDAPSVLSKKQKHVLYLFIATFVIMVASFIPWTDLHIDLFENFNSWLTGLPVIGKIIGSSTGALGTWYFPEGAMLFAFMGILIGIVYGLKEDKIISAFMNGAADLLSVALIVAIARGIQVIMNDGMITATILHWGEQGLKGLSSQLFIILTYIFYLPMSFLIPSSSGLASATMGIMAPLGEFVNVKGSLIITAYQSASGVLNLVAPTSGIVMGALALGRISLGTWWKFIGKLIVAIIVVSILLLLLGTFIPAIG

## NCCC[C@H](N)C(=O)O [Ornithine]
  % inhibition at 100-fold excess: Ornithine also had a moderate effect on the inhibition of arginine uptake
